Reference: US20220372099A1 (priority 2019, published 2022)

How the values were obtained:
[1] = tested on: erythropoietic activity; assay: repeat-dose study, 13 weekly SC doses with 35-day recovery, limiting erythropoiesis; format: in vivo, Cynomolgus monkeys
Source text: A cohort of animals (4/sex/group) were sacrificed on Day 92 (Main), and the remaining animals (2/sex/group) were sacrificed on Day 120 following a 35-day recovery period (Recovery).

[2] = plasma concentrations of Compound A in PV patients; format: in vivo, human; details: SC doses of 10 mg to 80 mg, various times after dosing
Description: Plasma concentrations of Compound A were measured at various times after dosing of subcutaneous doses of 10 mg to 80 mg in PV patients. The concentrations increased in a dose-dependent manner and varied based on dose and time of sampling. Compound A concentrations ranged from below detectable (<2 ng/mL) to 866 ng/mL (FIGS. 17A and 17B).

[3] = Phase I single dose study in healthy subjects; format: in vivo, human; details: 62 healthy subjects
Source text: Compound A is a hepcidin mimetic agent in clinical studies for multiple blood disorders.

[4] = tested on: Polycythemia vera; assay: Phase 2 study in patients with phlebotomy-requiring Polycythemia vera; details: 10-80 mg SC weekly
Source text: Eligible patients were enrolled in the 28-week dose finding part of the Phase 2 trial. […] Body iron status was quantified by monitoring serum ferritin, serum iron, transferrin saturation (TSAT), mean corpuscular volume (MCV) and mean corpuscular hemoglobin (MCH).

[5] = tested on: erythropoietic activity; assay: repeat-dose study, 4 weekly SC doses with 28-day recovery, limiting erythropoiesis; details: SC weekly x4
[6] = tested on: Polycythemia vera; details: through week 32 (portal vein thrombosis); 6 events with BAT; cited from earlier work
[7] = tested on: serum iron; assay: PK-PD experiment, serum iron (Cobas Iron2 colorimetric assay); format: in vivo, Cynomolgus monkeys; details: 2.93 mg/kg SC
Description: Iron content in plasma/serum was measured using a colorimetric assay on the Cobas c 111 according to instructions from the manufacturer of the assay (assay: IRON2: ACN 661).

[8] = tested on: Polycythemia vera; details: PV mice expressing the orthologous JAK2 mutation; cited from earlier work

Question: Which results are given for CCCCCCCCCCCCCCCC(=O)N[C@@H](CCC(=O)NCCCC[C@@H]1NC(=O)[C@H]([C@@H](C)CC)NC(=O)[C@@H](NC(=O)[C@@H]2CCCN2C(=O)[C@H](Cc2ccccc2)NC(=O)[C@H](Cc2c[nH]cn2)NC(=O)[C@@H](NC(=O)[C@H](CC(=O)O)NC(=O)CC(C)C)[C@@H](C)O)CSSC[C@@H](C(=O)N[C@@H](CCCCN)C(N)=O)NC(=O)CNC(=O)[C@H](CCCCN)NC(=O)[C@H](CO)NC(=O)[C@H](CCCNC(=N)N)NC(=O)[C@@H]2CCCN2C(=O)[C@H](CCC(=O)O)NC(=O)[C@H](Cc2ccccc2)NC1=O)C(=O)O [Compound A]?
Answer: dose with hematopoietic hypercellularity in bone marrow, extramedullary hematopoiesis and hemosiderin deposition in liver and spleen ([1]; SC weekly x13): ≥ 2 mg/kg/dose; dose with increased organ weight (liver and spleen) ([1]; SC weekly x13): 6 mg/kg/dose; dose with increase in total bilirubin (tBili) ([1]; during the treatment period): ≥ 2 mg/kg/day; dose with significantly elevated levels of platelets ([1]; male and female animals): 6 mg/kg/dose; plasma concentrations of Compound A, ranged from below detectable (<2 ng/mL) up to [2]: ≤ 866 ng/mL; adverse events [3]: without significant adverse events; grade of most of the injection site reactions [4]: 1-2 grade; leukocyte count over the course of treatment [4]: remained generally steady; most frequent adverse events [4]: injection site reaction (ISR) reported by three patients; platelet counts over the course of treatment [4]: remained generally steady; tolerability [4]: well tolerated; dose causing pharmacology-mediated anemia (dose- and time-dependent decreases in Hct and Hgb) [5]: ≥ 3 mg/kg/dose

Question: For N#CC[C@H](C1CCCC1)n1cc(-c2ncnc3[nH]ccc23)cn1 [ruxolitinib], which thromboembolic events [6] is on record?
Answer: Its thromboembolic events is 1 event.

Question: Which results are given for “Isovaleric acid-DTHFPCIKF(K(PEG11-Palm))PRSK[Sar]CK-NH2 [Compound B]”?
Answer: time of maximal serum iron reduction [7]: about 12 hour; serum iron lower than the pre-dose levels (maximal reduction) ([7]; about 12 hour post administration): 12 fold

Question: With “minihepcidin: hepcidin mimetic administered to PV mice in Casu et al., Blood 2016; not further defined (DTHFPICIF)” as the compound, how does the hematocrit [8] read?
Answer: Its hematocrit is “normalizes hematocrit”.

Question: What about the splenomegaly [8] of the same compound?
Answer: Its splenomegaly is “significantly reduces splenomegaly”.
